Values quoted from earlier work as cited in patent US20080112910A1, “Cool feeling composition, cool feeling auxiliary composition, and use thereof” (priority 2002, published 2008).

Conditions: as compared with menthol

COC(=O)c1ccccc1O [methyl salicylate]
stimulation of cool feeling: very weak
stimulation of hot feeling: strong
